Measurements as given in ChEMBL document CHEMBL1201862, “PubChem BioAssay data set” (2004).
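How tested: cells in 96-well plates exposed to compound for 48 hours at five concentrations. Abbreviation: GI50, concentration required for 50% inhibition of growth.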 Calls of active or inactive are those of the source. No stated cut-off is given here; in the data, active = GI50 up to about 1.1 µM and inactive = higher.

Key:
Experiment in all cases: DTP human tumour cell line panel, 48 h
ACHN = system: ACHN
CAKI-1 = system: CAKI-1
COLO 205 = system: COLO 205
DU-145 = system: DU-145
HCT-116 = system: HCT-116
HOP-62 = system: HOP-62
Hs-578T = system: Hs-578T
MCF7 = system: MCF7
MDA-MB-435 = system: MDA-MB-435
MOLT-4 = system: MOLT-4
NCI-H226 = system: NCI-H226
NCI-H460 = system: NCI-H460
OVCAR-4 = system: OVCAR-4
OVCAR-5 = system: OVCAR-5
SK-MEL-5 = system: SK-MEL-5
TK-10 = system: TK-10
UACC-257 = system: UACC-257
UACC-62 = system: UACC-62
SF-295 = system: SF-295
HCC 2998 = system: HCC 2998

Compound | GI50 (ACHN) | GI50 (CAKI-1) | GI50 (COLO 205) | GI50 (DU-145) | GI50 (HCT-116) | GI50 (HOP-62) | GI50 (Hs-578T) | GI50 (MCF7) | GI50 (MDA-MB-435) | GI50 (MOLT-4) | GI50 (NCI-H226) | GI50 (NCI-H460) | GI50 (OVCAR-4) | GI50 (OVCAR-5) | GI50 (SK-MEL-5) | GI50 (TK-10) | GI50 (UACC-257) | GI50 (UACC-62) | GI50 (SF-295) | GI50 (HCC 2998)
Cc1ccc(C2SC(=N)Nc3c2c(C)nn3C(=O)c2ccccc2O)cc1 (stereo unspecified) | 6.03 µM (inactive) | > 10 µM (inactive) | > 10 µM (inactive) | > 10 µM (inactive) | > 10 µM (inactive) | > 10 µM (inactive) | 1.51 µM (inactive) | > 10 µM (inactive) | 3.78 µM (inactive) | 7.43 µM (inactive) | > 10 µM (inactive) | 7.57 µM (inactive) | > 10 µM (inactive) | > 10 µM (inactive) | 4.37 µM (inactive) | > 10 µM (inactive) | > 10 µM (inactive) | 1.41 µM (inactive) |  | 
CC(C)N(C(=O)c1ccc(NCc2cc(O)ccc2O)cc1)C(C)C | 13.8 µM (inactive) | 14.2 µM (inactive) | 30.4 µM (inactive) | 16.4 µM (inactive) | 15.5 µM (inactive) | 25.5 µM (inactive) | 26.2 µM (inactive) | 23.9 µM (inactive) | 17.1 µM (inactive) | 15.2 µM (inactive) | 17.2 µM (inactive) | 18.2 µM (inactive) | 15.1 µM (inactive) | 21.5 µM (inactive) | 14.6 µM (inactive) | 15.6 µM (inactive) | 17.4 µM (inactive) | 14.2 µM (inactive) | 21.1 µM (inactive) | 
Cn1c(=O)c2nc3nnc(C#N)c(N)n3c2n(C)c1=O | 44.4 µM (inactive) | 51.8 µM (inactive) | > 100 µM (inactive) | 72.4 µM (inactive) | > 100 µM (inactive) | > 100 µM (inactive) |  | > 100 µM (inactive) | > 100 µM (inactive) | > 100 µM (inactive) | 54.1 µM (inactive) | > 100 µM (inactive) | > 100 µM (inactive) | > 100 µM (inactive) | 45.9 µM (inactive) | > 100 µM (inactive) |  | > 100 µM (inactive) | > 100 µM (inactive) | > 100 µM (inactive)
O=C(N/C(=C\NC1=NCCS1)C(=O)N1CSC[C@@H]1C(=O)O)c1ccccc1 | > 100 µM (inactive) | > 100 µM (inactive) | > 100 µM (inactive) | > 100 µM (inactive) | > 100 µM (inactive) | > 100 µM (inactive) |  | > 100 µM (inactive) | > 100 µM (inactive) | > 100 µM (inactive) | > 100 µM (inactive) | > 100 µM (inactive) | > 100 µM (inactive) | > 100 µM (inactive) | > 100 µM (inactive) | > 100 µM (inactive) | > 100 µM (inactive) | > 100 µM (inactive) | > 100 µM (inactive) | > 100 µM (inactive)
O=C(NN1C(=O)c2ccccc2C1=O)c1ccccc1Nc1ccccc1C(=O)NN1C(=O)c2ccccc2C1=O | > 100 µM (inactive) | > 100 µM (inactive) | > 100 µM (inactive) | > 100 µM (inactive) | > 100 µM (inactive) | > 100 µM (inactive) |  | > 100 µM (inactive) | > 100 µM (inactive) | > 100 µM (inactive) | > 100 µM (inactive) | > 100 µM (inactive) | > 100 µM (inactive) | > 100 µM (inactive) | > 100 µM (inactive) | > 100 µM (inactive) | > 100 µM (inactive) | > 100 µM (inactive) | > 100 µM (inactive) | > 100 µM (inactive)
CC(C)Sc1nncc(/C(N)=N/O)n1 | > 100 µM (inactive) | > 100 µM (inactive) | > 100 µM (inactive) | > 100 µM (inactive) | > 100 µM (inactive) | > 100 µM (inactive) |  | > 100 µM (inactive) | > 100 µM (inactive) | > 100 µM (inactive) | > 100 µM (inactive) | > 100 µM (inactive) | > 100 µM (inactive) | > 100 µM (inactive) | > 100 µM (inactive) | > 100 µM (inactive) | > 100 µM (inactive) | > 100 µM (inactive) | > 100 µM (inactive) | > 100 µM (inactive)
COC1CC(C)C(OC)C2=CC(=O)C=C(NC(=O)/C(C)=C/C=C\C(C)C(OC(N)=O)/C(C)=C\C(C)C1OC)C2=O (stereo unspecified) | 1.25 µM (inactive) | 2.52 µM (inactive) | 0.0414 µM (active) | 0.643 µM (active) | 0.313 µM (active) | 1.48 µM (inactive) |  | 0.0621 µM (active) | 0.0721 µM (active) | 0.0535 µM (active) | 6.15 µM (inactive) | 0.422 µM (active) | 0.834 µM (active) | 3.2 µM (inactive) | 0.804 µM (active) | 2.09 µM (inactive) | 0.261 µM (active) | 0.492 µM (active) | 1.07 µM (active) | 0.665 µM (active)
